# Experimental data taken from the supplement of paper PMC10307832.
# Assays:
# Experiment in all cases: relative viability (nuclei count vs DMSO), 5 days (fraction); higher = more cells survive
# [1] = system: 201T
# Summary of the method: (§1)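 Five library-drug doses in √10 steps were combined with a fixed anchor-drug dose, or a single drug was given alone, by pin tool to lung cancer cell lines in 1536-well plates the day after seeding. Nuclei were stained and counted after 5 days. Relative viability is the nuclei count in treated wells over that in vehicle wells, taken as the median of duplicate plates.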
# [2] = system: BEN
# Summary of the method: as §1
# [3] = system: CAL-12T
# Summary of the method: as §1
# [4] = system: HCC-78
# Summary of the method: as §1
# [5] = system: HOP-62
# Summary of the method: as §1
# [6] = system: LCLC-97TM1
# Summary of the method: as §1
# [7] = system: LOU-NH91
# Summary of the method: as §1
# [8] = system: NCI-H1355
# Summary of the method: as §1
# [9] = system: NCI-H1395
# Summary of the method: as §1
# [10] = system: NCI-H1563
# Summary of the method: as §1
# [11] = system: NCI-H1651
# Summary of the method: as §1
# [12] = system: NCI-H1793
# Summary of the method: as §1
# [13] = system: NCI-H1915
# Summary of the method: as §1
# [14] = system: NCI-H1944
# Summary of the method: as §1
# [15] = system: NCI-H2126
# Summary of the method: as §1
# [16] = system: NCI-H2347
# Summary of the method: as §1
# [17] = system: NCI-H3122
# Summary of the method: as §1
# [18] = system: NCI-H322M
# Summary of the method: as §1
# [19] = system: NCI-H441
# Summary of the method: as §1
# [20] = system: NCI-H650
# Summary of the method: as §1
# [21] = system: NCI-H838
# Summary of the method: as §1
# [22] = system: SK-LU-1
# Summary of the method: as §1
# [23] = system: SW 1573
# Summary of the method: as §1
structure (smiles),measurement,setting,value
Cc1cn(-c2cc(NC(=O)c3ccc(C)c(Nc4nccc(-c5cccnc5)n4)c3)cc(C(F)(F)F)c2)cn1 [Nilotinib] + Cc1nc(Nc2ncc(C(=O)Nc3c(C)cccc3Cl)s2)cc(N2CCN(CCO)CC2)n1 [Dasatinib] (partner 0.075 µM),relative viability,[1]; first compound 0.01 µM,0.404
same,relative viability,[1]; first compound 0.03162 µM,0.451
same,relative viability,[1]; first compound 0.1 µM,0.295
same,relative viability,[2]; first compound 0.001 µM,0.336
same,relative viability,[2]; first compound 0.003162 µM,0.338
same,relative viability,[2]; first compound 0.01 µM,0.278
same,relative viability,[2]; first compound 0.03162 µM,0.322
same,relative viability,[2]; first compound 0.1 µM,0.221
same,relative viability,[3]; first compound 0.001 µM,0.376
same,relative viability,[3]; first compound 0.003162 µM,0.387
same,relative viability,[3]; first compound 0.01 µM,0.456
same,relative viability,[3]; first compound 0.03162 µM,0.178
same,relative viability,[3]; first compound 0.1 µM,0.137
same,relative viability,[4]; first compound 0.001 µM,0.442
same,relative viability,[4]; first compound 0.003162 µM,0.357
same,relative viability,[4]; first compound 0.01 µM,0.404
same,relative viability,[4]; first compound 0.03162 µM,0.252
same,relative viability,[4]; first compound 0.1 µM,0.268
same,relative viability,[5]; first compound 0.001 µM,0.603
same,relative viability,[5]; first compound 0.003162 µM,0.67
same,relative viability,[5]; first compound 0.01 µM,0.66
same,relative viability,[5]; first compound 0.03162 µM,0.491
same,relative viability,[5]; first compound 0.1 µM,0.476
same,relative viability,[6]; first compound 0.001 µM,0.855
same,relative viability,[6]; first compound 0.003162 µM,0.896
same,relative viability,[6]; first compound 0.01 µM,0.971
same,relative viability,[6]; first compound 0.03162 µM,0.654
same,relative viability,[6]; first compound 0.1 µM,0.617
same,relative viability,[7]; first compound 0.001 µM,0.524
same,relative viability,[7]; first compound 0.003162 µM,0.619
same,relative viability,[7]; first compound 0.01 µM,0.569
same,relative viability,[7]; first compound 0.03162 µM,0.489
same,relative viability,[7]; first compound 0.1 µM,0.583
same,relative viability,[8]; first compound 0.001 µM,0.653
same,relative viability,[8]; first compound 0.003162 µM,0.751
same,relative viability,[8]; first compound 0.01 µM,0.556
same,relative viability,[8]; first compound 0.03162 µM,0.46
same,relative viability,[8]; first compound 0.1 µM,0.333
same,relative viability,[9]; first compound 0.001 µM,0.445
same,relative viability,[9]; first compound 0.003162 µM,0.357
same,relative viability,[9]; first compound 0.01 µM,0.428
same,relative viability,[9]; first compound 0.03162 µM,0.357
same,relative viability,[9]; first compound 0.1 µM,0.333
same,relative viability,[10]; first compound 0.001 µM,0.447
same,relative viability,[10]; first compound 0.003162 µM,0.447
same,relative viability,[10]; first compound 0.01 µM,0.442
same,relative viability,[10]; first compound 0.03162 µM,0.492
same,relative viability,[10]; first compound 0.1 µM,0.329
same,relative viability,[11]; first compound 0.001 µM,0.426
same,relative viability,[11]; first compound 0.003162 µM,0.387
same,relative viability,[11]; first compound 0.01 µM,0.42
same,relative viability,[11]; first compound 0.1 µM,0.208
same,relative viability,[12]; first compound 0.001 µM,0.303
same,relative viability,[12]; first compound 0.003162 µM,0.407
same,relative viability,[12]; first compound 0.01 µM,0.459
same,relative viability,[12]; first compound 0.03162 µM,0.283
same,relative viability,[12]; first compound 0.1 µM,0.194
same,relative viability,[13]; first compound 0.001 µM,0.324
same,relative viability,[13]; first compound 0.003162 µM,0.314
same,relative viability,[13]; first compound 0.01 µM,0.354
same,relative viability,[13]; first compound 0.03162 µM,0.27
same,relative viability,[13]; first compound 0.1 µM,0.141
same,relative viability,[14]; first compound 0.001 µM,0.228
same,relative viability,[14]; first compound 0.003162 µM,0.206
same,relative viability,[14]; first compound 0.01 µM,0.217
same,relative viability,[14]; first compound 0.03162 µM,0.241
same,relative viability,[15]; first compound 0.001 µM,0.534
same,relative viability,[15]; first compound 0.003162 µM,0.522
same,relative viability,[15]; first compound 0.01 µM,0.513
same,relative viability,[15]; first compound 0.03162 µM,0.5
same,relative viability,[15]; first compound 0.1 µM,0.459
same,relative viability,[16]; first compound 0.001 µM,0.302
same,relative viability,[16]; first compound 0.003162 µM,0.344
same,relative viability,[16]; first compound 0.01 µM,0.344
same,relative viability,[16]; first compound 0.03162 µM,0.267
same,relative viability,[16]; first compound 0.1 µM,0.264
same,relative viability,[17]; first compound 0.001 µM,0.719
same,relative viability,[17]; first compound 0.003162 µM,0.91
same,relative viability,[17]; first compound 0.01 µM,0.982
same,relative viability,[17]; first compound 0.03162 µM,0.267
same,relative viability,[17]; first compound 0.1 µM,0.129
same,relative viability,[18]; first compound 0.001 µM,0.295
same,relative viability,[18]; first compound 0.003162 µM,0.279
same,relative viability,[18]; first compound 0.03162 µM,0.282
same,relative viability,[18]; first compound 0.1 µM,0.234
same,relative viability,[19]; first compound 0.001 µM,0.523
same,relative viability,[19]; first compound 0.003162 µM,0.712
same,relative viability,[19]; first compound 0.01 µM,0.632
same,relative viability,[19]; first compound 0.03162 µM,0.369
same,relative viability,[19]; first compound 0.1 µM,0.417
same,relative viability,[20]; first compound 0.001 µM,0.462
same,relative viability,[20]; first compound 0.003162 µM,0.479
same,relative viability,[20]; first compound 0.01 µM,0.49
same,relative viability,[20]; first compound 0.03162 µM,0.408
same,relative viability,[20]; first compound 0.1 µM,0.379
same,relative viability,[21]; first compound 0.001 µM,0.279
same,relative viability,[21]; first compound 0.003162 µM,0.302
same,relative viability,[21]; first compound 0.01 µM,0.278
same,relative viability,[21]; first compound 0.03162 µM,0.268
same,relative viability,[21]; first compound 0.1 µM,0.291
same,relative viability,[22]; first compound 0.001 µM,0.196
same,relative viability,[22]; first compound 0.003162 µM,0.146
same,relative viability,[22]; first compound 0.01 µM,0.21
same,relative viability,[22]; first compound 0.03162 µM,0.177
same,relative viability,[22]; first compound 0.1 µM,0.177
same,relative viability,[23]; first compound 0.001 µM,0.398
same,relative viability,[23]; first compound 0.003162 µM,0.455
same,relative viability,[23]; first compound 0.01 µM,0.749
same,relative viability,[23]; first compound 0.03162 µM,0.234
same,relative viability,[23]; first compound 0.1 µM,0.261
